Like-named read-outs stand apart in the source and are kept apart here.
Key:
[1] = test system: nonneoplastic ductal cell line HPDE
Protocol: (§1) Total RNA was isolated from cultured cells using TRIZOL reagent (invitrogen, Carlsbad, Calif.) and purified using RNeasy Mini Kit (Qiagen, Valencia, Calif.). First- and second-stranded cDNA was synthesized from 10 μg of total RNA using 17-dT) primer (Genset Corp., La Jolla, Calif.) and Superscript Choice system (Invitrogen). Labeled cRNA was synthesized from the purified cDNA by in vitro transcription reaction using the BioArray High Yield RNA Transcript Labeling Kit (Enzo Diagnostics, Inc., Farmingdale, N.Y.) at 37° C. for 6 h. The cRNA was fragmented at 94° C. for 35 min. in a fragmentation buffer [40 mM Tris-acetate @ pH 8.1, 100 mM potassium acestate, and 30 mM magnesium acetate]. The fragmented cRNA was then hybridized to the Human Genome U133A chips (Affymetrix, Santa Clara, Calif.) with 18462 unique gene/EST transcripts at 45° C. for 16 h. The washing and staining procedure was performed in the Affymetrix Fluidics Station according to the manufacturer's instructions. The probes were then scanned using a laser scanner, and signal intensity for each transcript (background-subtracted and adjusted for noise) was calculated using Microarray Suite Software 5.0 (Affymetrix).
(§2) Fold change analysis of signal intensities obtained from oligonucleotide microarrays between the two treatment groups was performed using Data Mining software (Afrymetrix).

[2] = test system: AsPC1 pancreatic cancer cell line
Protocol: Mock-treated cells were cultured with the equivalent volume of PBS alone.
as §1, §2
The global changes in gene expression proxies induced by 5Aza-dC in four pancreatic cancer cell lines (AsPCl, Hs766T, MiaPaCa2, and Panel) were determined using the Afrymetrix U133 oligonucleotide microarrays with 18462 probes sets (transcripts) covering over 13000 full-length sequences of known genes.

Structure (SMILES): Nc1ncn([C@H]2C[C@H](O)[C@@H](CO)O2)c(=O)n1 [5Aza-dC, 5 aza 2′ deoxycytidine]
- Fold-change after 5Aza-dC treatment ([1]; ANGPT2, HPDE): −0.4 fold
- Fold-change after 5Aza-dC treatment ([1]; BARD1, HPDE): 2.23 fold
- Fold-change after 5Aza-dC treatment ([1]; BNIP3, HPDE): 1.23 fold
- Fold-change after 5Aza-dC treatment ([1]; BST2, HPDE): −1.06 fold
- Fold-change after 5Aza-dC treatment ([1]; CACNA1G, HPDE): 0.39 fold
- Fold-change after 5Aza-dC treatment ([1]; CCNE2, HPDE): 1.5 fold
- Fold-change after 5Aza-dC treatment ([1]; CDH3, HPDE): −1.08 fold
- Fold-change after 5Aza-dC treatment ([1]; CDKN1A (p21), HPDE): 1.33 fold
- Fold-change after 5Aza-dC treatment ([1]; CDKN1C, HPDE): 1.07 fold
- Fold-change after 5Aza-dC treatment ([1]; CLDN5, HPDE): 2.45 fold
- Fold-change after 5Aza-dC treatment ([1]; CSF1, HPDE): −1.03 fold
- Fold-change after 5Aza-dC treatment ([1]; DR3, HPDE): 1.01 fold
- Fold-change after 5Aza-dC treatment ([1]; FOXE1, HPDE): −1.1 fold
- Fold-change after 5Aza-dC treatment ([1]; GAGE1, HPDE): −0.55 fold
- Fold-change after 5Aza-dC treatment ([1]; GAGE3, HPDE): 1.33 fold
- Fold-change after 5Aza-dC treatment ([1]; GAGE4, HPDE): 3.33 fold
- Fold-change after 5Aza-dC treatment ([1]; GAGE6, HPDE): 2.41 fold
- Fold-change after 5Aza-dC treatment ([1]; GAGE7, HPDE): 3.36 fold
- Fold-change after 5Aza-dC treatment ([1]; HOXA1, HPDE): −1.23 fold
- transcripts induced, share of transcripts analyzed ([1]; HPDE): 0.5%
- transcripts whose expression was induced after drug treatment ([1]; HPDE): 101 transcripts
- Fold-change after 5Aza-dC treatment ([1]; IGF2, HPDE): −0.34 fold
- Fold-change after 5Aza-dC treatment ([1]; IL1R1, HPDE): −1.81 fold
- Fold-change after 5Aza-dC treatment ([1]; ISG20, HPDE): 0.89 fold
- Fold-change after 5Aza-dC treatment ([1]; JPH3, HPDE): 2.14 fold
- Fold-change after 5Aza-dC treatment ([1]; KLK10, HPDE): 3.75 fold
- Fold-change after 5Aza-dC treatment ([1]; LDOC1, HPDE): −1.12 fold
- Fold-change after 5Aza-dC treatment ([1]; LHX1, HPDE): 1.01 fold
- Fold-change after 5Aza-dC treatment ([1]; MAGE1, HPDE): 1.7 fold
- Fold-change after 5Aza-dC treatment ([1]; MATN1, HPDE): −125 fold
- Fold-change after 5Aza-dC treatment ([1]; NEFH, HPDE): −1.08 fold
- Fold-change after 5Aza-dC treatment ([1]; NPTX2, HPDE): 2.42 fold
- Fold-change after 5Aza-dC treatment ([1]; PAX6, HPDE): 2.57 fold
- Fold-change after 5Aza-dC treatment ([1]; PDYN, HPDE): −1.04 fold
- Fold-change after 5Aza-dC treatment ([1]; PLAT, HPDE): 4.9 fold
- Fold-change after 5Aza-dC treatment ([1]; PLEK2, HPDE): 1.2 fold
- Fold-change after 5Aza-dC treatment ([1]; SARP2, HPDE): 1.11 fold
- Fold-change after 5Aza-dC treatment ([1]; SMARCA1, HPDE): 3.54 fold
- Fold-change after 5Aza-dC treatment ([1]; ST14, HPDE): −1.05 fold
- Fold-change after 5Aza-dC treatment ([1]; TIMP3, HPDE): 1.32 fold
- Fold-change after 5Aza-dC treatment ([1]; TJP2, HPDE): 1.41 fold
- Fold-change after 5Aza-dC treatment ([1]; TNF, HPDE): −1.2 fold
- Fold-change after 5Aza-dC treatment ([1]; UCHL1, HPDE): 1.95 fold
- Fold-change after 5Aza-dC treatment ([1]; WNT7A, HPDE): −1.23 fold
- Fold-change after 5Aza-dC treatment ([1]; XAGE-1, HPDE): −0.43 fold
- Fold-change after 5Aza-dC treatment ([1]; granulocytemacrophage colony-stimulating factor (M11734), HPDE): −0.94 fold
- Fold-change after 5Aza-dC treatment ([1]; interferon, alpha-inducible protein (NM_022873), HPDE): 1.33 fold
- Fold-change after 5Aza-dC treatment ([1]; p53-induced protein (PIGII), HPDE): −1.58 fold
- Fold-change after 5Aza-dC treatment ([1]; reprimo, HPDE): 1.06 fold
- Fold-change after 5Aza-dC treatment ([1]; stratifin (14-3-3 sigma), HPDE): −1.46 fold
- Fold-change after 5Aza-dC treatment ([1]; stromal antigen 3 (STAG5), HPDE): 4.8 fold
- Fold-change after 5Aza-dC treatment ([1]; testin, HPDE): 1.09 fold
- Fold-change after 5Aza-dC treatment ([2]; ANGPT2, AsPC1): 6.15 fold
- transcripts with >5-fold increase, share of the 18462 transcripts analyzed ([2]; AsPC1): 1.2%
- transcripts with substantial increase (>5-fold) in signal intensities ([2]; AsPC1, vs mock-treated): 225 transcripts
- Fold-change after 5Aza-dC treatment ([2]; BARD1, AsPC1): −1.07 fold
- Fold-change after 5Aza-dC treatment ([2]; BNIP3, AsPC1): 6.12 fold
- Fold-change after 5Aza-dC treatment ([2]; BST2, AsPC1): 1.97 fold
- Fold-change after 5Aza-dC treatment ([2]; CACNA1G, AsPC1): 1.83 fold
- Fold-change after 5Aza-dC treatment ([2]; CCNE2, AsPC1): 1.48 fold
- Fold-change after 5Aza-dC treatment ([2]; CDKN1A (p21), AsPC1): 2.21 fold
- Fold-change after 5Aza-dC treatment ([2]; CDKN1C, AsPC1): 0.6 fold
- Fold-change after 5Aza-dC treatment ([2]; CLDN5, AsPC1): 22.34 fold
- Fold-change after 5Aza-dC treatment ([2]; CSF1, AsPC1): 1.12 fold
- Fold-change after 5Aza-dC treatment ([2]; DR3, AsPC1): 1.47 fold
- Fold-change after 5Aza-dC treatment ([2]; FOXE1, AsPC1): 3.51 fold
- Fold-change after 5Aza-dC treatment ([2]; GAGE1, AsPC1): −0.54 fold
- Fold-change after 5Aza-dC treatment ([2]; GAGE4, AsPC1): 15.66 fold
- Fold-change after 5Aza-dC treatment ([2]; GAGE6, AsPC1): 15.59 fold
- Fold-change after 5Aza-dC treatment ([2]; GAGE7, AsPC1): 14.08 fold
- Fold-change after 5Aza-dC treatment ([2]; HOXA1, AsPC1): 25.8 fold
- Fold-change after 5Aza-dC treatment ([2]; IGF2, AsPC1): 0.55 fold
- Fold-change after 5Aza-dC treatment ([2]; IL1R1, AsPC1): 7.51 fold
- Fold-change after 5Aza-dC treatment ([2]; ISG20, AsPC1): −1.12 fold
- Fold-change after 5Aza-dC treatment ([2]; JPH3, AsPC1): 1.27 fold
- Fold-change after 5Aza-dC treatment ([2]; KLK10, AsPC1): 1.03 fold
- Fold-change after 5Aza-dC treatment ([2]; LDOC1, AsPC1): 8.99 fold
- Fold-change after 5Aza-dC treatment ([2]; LHX1, AsPC1): 5.22 fold
- Fold-change after 5Aza-dC treatment ([2]; MAGE1, AsPC1): 1.52 fold
- Fold-change after 5Aza-dC treatment ([2]; MATN1, AsPC1): −1.44 fold
- Fold-change after 5Aza-dC treatment ([2]; NEFH, AsPC1): 2.94 fold
- Fold-change after 5Aza-dC treatment ([2]; NPTX2, AsPC1): 13.97 fold
- Fold-change after 5Aza-dC treatment ([2]; PAX6, AsPC1): 8.94 fold
- Fold-change after 5Aza-dC treatment ([2]; PDYN, AsPC1): 1.33 fold
- Fold-change after 5Aza-dC treatment ([2]; PLAT, AsPC1): −1.15 fold
- Fold-change after 5Aza-dC treatment ([2]; PLEK2, AsPC1): 1.37 fold
- Fold-change after 5Aza-dC treatment ([2]; SARP2, AsPC1): −1.89 fold
- Fold-change after 5Aza-dC treatment ([2]; SMARCA1, AsPC1): 7.89 fold
- Fold-change after 5Aza-dC treatment ([2]; ST14, AsPC1): −1.21 fold
- Fold-change after 5Aza-dC treatment ([2]; TIMP3, AsPC1): 11.89 fold
- Fold-change after 5Aza-dC treatment ([2]; TJP2, AsPC1): −1.24 fold
- Fold-change after 5Aza-dC treatment ([2]; TNF, AsPC1): −1.17 fold
- Fold-change after 5Aza-dC treatment ([2]; UCHL1, AsPC1): 6.62 fold
- Fold-change after 5Aza-dC treatment ([2]; WNT7A, AsPC1): 2.7 fold
- Fold-change after 5Aza-dC treatment ([2]; XAGE-1, AsPC1): 28.59 fold
- Fold-change after 5Aza-dC treatment ([2]; granulocytemacrophage colony-stimulating factor (M11734), AsPC1): 1.44 fold
- Fold-change after 5Aza-dC treatment ([2]; interferon, alpha-inducible protein (NM_022873), AsPC1): 4.48 fold
- Fold-change after 5Aza-dC treatment ([2]; p53-induced protein (PIGII), AsPC1): −1.22 fold
- Fold-change after 5Aza-dC treatment ([2]; reprimo, AsPC1): 1.66 fold
- Fold-change after 5Aza-dC treatment ([2]; stratifin (14-3-3 sigma), AsPC1): −1.48 fold
- Fold-change after 5Aza-dC treatment ([2]; stromal antigen 3 (STAG5), AsPC1): 14.06 fold
- Fold-change after 5Aza-dC treatment ([2]; testin, AsPC1): −1.23 fold

Source: patent US8785614B2, “Aberrantly methylated genes in pancreatic cancer” (The Johns Hopkins University, priority 2003, dated 2014)
